What follows are compounds tested against T1, AKT1 (Homo sapiens, UniProt P31749) (assay: HTS ATP-utilizing enzyme assay, off-chip mobility-shift (Caliper HTS 250)). Details: kinase named = inhibitory activity/selectivity; test compound 10 μM; active = greater than three-sigma from mean.
T1 construct: purchased Upstate 14-276
Type: biochemical
Outline: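 AKT1 activity was measured by off-chip mobility shift (Caliper HTS 250) as the ratio of peptide substrate to phosphorylated product. Test compound was at 10 μM, with 2.5 h incubation at 20–22° C. EDTA wells served as 100% control and DMSO wells as 0%. Hits were called at three-sigma limits.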

T1 sequence (P31749 whole entry): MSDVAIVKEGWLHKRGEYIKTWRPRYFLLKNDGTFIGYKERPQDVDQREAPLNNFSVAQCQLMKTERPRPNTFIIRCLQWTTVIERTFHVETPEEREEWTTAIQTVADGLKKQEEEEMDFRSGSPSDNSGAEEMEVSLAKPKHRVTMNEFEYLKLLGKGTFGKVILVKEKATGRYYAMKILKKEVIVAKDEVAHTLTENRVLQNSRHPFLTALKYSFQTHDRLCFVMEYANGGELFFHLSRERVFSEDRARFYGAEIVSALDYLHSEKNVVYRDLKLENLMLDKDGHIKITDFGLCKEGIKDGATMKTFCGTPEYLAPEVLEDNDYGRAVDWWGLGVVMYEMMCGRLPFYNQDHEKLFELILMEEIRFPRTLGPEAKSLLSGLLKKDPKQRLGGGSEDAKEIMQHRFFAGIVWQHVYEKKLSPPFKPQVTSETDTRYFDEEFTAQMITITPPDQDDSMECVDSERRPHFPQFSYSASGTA

Activity, AKT1:
COc1ccc(OC)c(-c2csc(N(CCCN3CCCC3)C(=O)c3ccco3)n2)c1 [N-(4-(2,5-dimethoxyphenyl)thiazol-2-yl)-N-(3-(pyrrolidin-1-yl)propyl)furan-2-carboxamide]
O=C(CCN(C(=O)c1cccs1)c1nc(-c2cc3ccccc3o2)cs1)N1CCCC(O)C1 (stereo not drawn) [N-(4-(benzofuran-2-yl)thiazol-2-yl)-N-(3-(3-hydroxypiperidin-1-yl)-3-oxopropyl)thiophene-2-carboxamide]
COc1ccc(OC)c(-c2csc(N(CCCN3CCCCCC3)C(=O)c3ccccc3)n2)c1 [N-(3-(azepan-1-yl)propyl)-N-(4-(2,5-dimethoxyphenyl)thiazol-2-yl)benzamide]
Cc1ccc(-c2csc(N(CCCN3CCOCC3)C(=O)c3cccs3)n2)cc1 [N-(3-morpholinopropyl)-N-(4-p-tolylthiazol-2-yl)thiophene-2-carboxamide]
O=C(c1cccs1)N(CCCN1CCN(CCOCCO)CC1)c1nc(-c2cc3ccccc3o2)cs1 [N-(4-(benzofuran-2-yl)thiazol-2-yl)-N-(3-(4-(2-(2-hydroxyethoxy)ethyl)piperazin-1-yl)propyl)thiophene-2-carboxamide]
COc1ccc(OC)c(-c2csc(N(CCCN3CCCCC3)C(=O)c3ccccc3)n2)c1 [N-(4-(2,5-dimethoxyphenyl)thiazol-2-yl)-N-(3-(piperidin-1-yl)propyl)benzamide]
NC(=O)c1ccc(-c2csc(N(CCCN3CCOCC3)C(=O)c3cccs3)n2)cc1 [N-(4-(4-carbamoylphenyl)thiazol-2-yl)-N-(3-morpholinopropyl)thiophene-2-carboxamide]
NC(=O)C1CCCN(CCCN(C(=O)c2cccs2)c2nc(-c3cc4ccccc4o3)cs2)C1 (stereo not drawn) [1-(3-(N-(4-(benzofuran-2-yl)thiazol-2-yl)thiophene-2-carboxamido)propyl)piperidine-3-carboxamide]
CCN(CC)C1CCN(CCCN(C(=O)c2cccs2)c2nc(-c3cc4ccccc4o3)cs2)C1 (stereo not drawn) [N-(4-(benzofuran-2-yl)thiazol-2-yl)-N-(3-(3-(diethylamino)pyrrolidin-1-yl)propyl)thiophene-2-carboxamide]
CC(=O)NCCCC(=O)NCCCN(C(=O)c1cccs1)c1nc(-c2cc3ccccc3o2)cs1 [N-(3-(4-acetamidobutanamido)propyl)-N-(4-(benzofuran-2-yl)thiazol-2-yl)thiophene-2-carboxamide]
O=C(c1ccco1)N(CCCN1CCOCC1)c1nc(-c2ccccc2)cs1 [N-(3-morpholinopropyl)-N-(4-phenylthiazol-2-yl)furan-2-carboxamide]
CC(=O)NC1CCN(CCCN(C(=O)c2cccs2)c2nc(-c3cc4ccccc4o3)cs2)C1 (stereo not drawn) [N-(3-(3-acetamidopyrrolidin-1-yl)propyl)-N-(4-(benzofuran-2-yl)thiazol-2-yl)thiophene-2-carboxamide]
O=C(NCCCO)c1ccc(-c2csc(N(CCCN3CCOCC3)C(=O)c3cccs3)n2)cc1 [N-(4-(4-(3-hydroxypropylcarbamoyl)phenyl)thiazol-2-yl)-N-(3-morpholinopropyl)thiophene-2-carboxamide]
CS(=O)(=O)Nc1cccc(NC(=O)c2csc(N(CCCN3CCOCC3)C(=O)c3cccs3)n2)c1 [N-(3-(methylsulfonamido)phenyl)-2-(N-(3-morpholinopropyl)thiophene-2-carboxamido)thiazole-4-carboxamide]
N#Cc1ccc(-c2csc(N(CCCN3CCOCC3)C(=O)c3cccs3)n2)cc1 [N-(4-(4-cyanophenyl)thiazol-2-yl)-N-(3-morpholinopropyl)thiophene-2-carboxamide]
COC(=O)c1ccc(-c2csc(N(CCCN3CCOCC3)C(=O)c3cccs3)n2)nc1 [methyl 6-(2-(N-(3-morpholinopropyl)thiophene-2-carboxamido)thiazol-4-yl)nicotinate]
O=C1COc2ccc(-c3csc(N(CCCN4CCOCC4)C(=O)c4cccs4)n3)cc2N1 [N-(3-morpholinopropyl)-N-(4-(3-oxo-3,4-dihydro-2H-benzo[b][1,4]oxazin-6-yl)thiazol-2-yl)thiophene-2-carboxamide]
O=C(c1cccs1)N(CCCN1CCOCC1)c1nc(C(F)(F)F)cs1 [N-(3-morpholinopropyl)-N-(4-(trifluoromethyl)thiazol-2-yl)thiophene-2-carboxamide]
CNC(=O)[C@H]1CCCN1CCCN(C(=O)c1cccs1)c1nc(-c2cc3ccccc3o2)cs1 [(R)-1-(3-(N-(4-(benzofuran-2-yl)thiazol-2-yl)thiophene-2-carboxamido)propyl)-N-methylpyrrolidine-2-carboxamide]
O=C1CCCN1CCCN(C(=O)c1cccs1)c1nc(-c2cc(-c3ccccc3)no2)cs1 [N-(3-(2-oxopyrrolidin-1-yl)propyl)-N-(4-(3-phenylisoxazol-5-yl)thiazol-2-yl)thiophene-2-carboxamide]
CNC(=O)C1CCN(CCCN(C(=O)c2cccs2)c2nc(-c3cc4ccccc4o3)cs2)CC1 [1-(3-(N-(4-(benzofuran-2-yl)thiazol-2-yl)thiophene-2-carboxamido)propyl)-N-methylpiperidine-4-carboxamide]
O=C(c1ccco1)N(CCCCN1CCOCC1)c1nc(-c2cc(-c3ccccc3)no2)cs1 [N-(4-morpholinobutyl)-N-(4-(3-phenylisoxazol-5-yl)thiazol-2-yl)furan-2-carboxamide]
O=C(c1cccs1)N(CCCN1CCOCC1)c1nc(-c2ccc(Cl)s2)cs1 [N-(4-(5-chlorothiophen-2-yl)thiazol-2-yl)-N-(3-morpholinopropyl)thiophene-2-carboxamide]
COC(=O)C1CCCCN1CCCN(C(=O)c1cccs1)c1nc(-c2cc3ccccc3o2)cs1 (stereo not drawn) [methyl 1-(3-(N-(4-(benzofuran-2-yl)thiazol-2-yl)thiophene-2-carboxamido)propyl)piperidine-2-carboxylate]
CC(=O)NC1CCN(C(=O)CCCN(C(=O)c2cccs2)c2nc(-c3cc4ccccc4o3)cs2)C1 (stereo not drawn) [N-(4-(3-acetamidopyrrolidin-1-yl)-4-oxobutyl)-N-(4-(benzofuran-2-yl)thiazol-2-yl)thiophene-2-carboxamide]
O=C(c1cccs1)N(CCC(=O)N(CCCCO)C1CCCCC1)c1nc(-c2cc3ccccc3o2)cs1 [N-(4-(benzofuran-2-yl)thiazol-2-yl)-N-(3-(cyclohexyl(4-hydroxybutyl)amino)-3-oxopropyl)thiophene-2-carboxamide]
CC(CO)NC(=O)CCN(C(=O)c1cccs1)c1nc(-c2cc3ccccc3o2)cs1 (stereo not drawn) [N-(4-(benzofuran-2-yl)thiazol-2-yl)-N-(3-(1-hydroxypropan-2-ylamino)-3-oxopropyl)thiophene-2-carboxamide]
COCCNC(=O)CCN(C(=O)c1cccs1)c1nc(-c2cc3ccccc3o2)cs1 [N-(4-(benzofuran-2-yl)thiazol-2-yl)-N-(3-(2-methoxyethylamino)-3-oxopropyl)thiophene-2-carboxamide]
Cc1c(-c2csc(N(CCCN3CCOCC3)C(=O)c3cccs3)n2)sc2ccccc12 [N-(4-(3-methylbenzo[b]thiophen-2-yl)thiazol-2-yl)-N-(3-morpholinopropyl)thiophene-2-carboxamide]
O=C(CCN(C(=O)c1cccs1)c1nc(-c2cc3ccccc3o2)cs1)NCCO [N-(4-(benzofuran-2-yl)thiazol-2-yl)-N-(3-(2-hydroxyethylamino)-3-oxopropyl)thiophene-2-carboxamide]
CS(=O)(=O)c1ccc2c(c1)CCN2C(=O)CCCN(C(=O)c1cccs1)c1nc(-c2cc3ccccc3o2)cs1 [N-(4-(benzofuran-2-yl)thiazol-2-yl)-N-(4-(5-(methylsulfonyl)indolin-1-yl)-4-oxobutyl)thiophene-2-carboxamide]
CCOC(=O)C1CCCCN1CCCN(C(=O)c1cccs1)c1nc(-c2cc3ccccc3o2)cs1 (stereo not drawn) [ethyl 1-(3-(N-(4-(benzofuran-2-yl)thiazol-2-yl)thiophene-2-carboxamido)propyl)piperidine-2-carboxylate]
O=C(c1cccs1)N(CCCN1CCOCC1)c1nc(-c2ccc(OC(F)F)cc2)cs1 [N-(4-(4-(difluoromethoxy)phenyl)thiazol-2-yl)-N-(3-morpholinopropyl)thiophene-2-carboxamide]
CC(C)CN(C(=O)CCN(C(=O)c1cccs1)c1nc(-c2cc3ccccc3o2)cs1)C1CCS(=O)(=O)C1 (stereo not drawn) [N-(4-(benzofuran-2-yl)thiazol-2-yl)-N-(3-(isobutyl(1,1-dioxo-tetrahydrothiophen-3-yl)amino)-3-oxopropyl)thiophene-2-carboxamide]
CN(C)CCNC(=O)CCN(C(=O)c1cccs1)c1nc(-c2cc3ccccc3o2)cs1 [N-(4-(benzofuran-2-yl)thiazol-2-yl)-N-(3-(2-(dimethylamino)ethylamino)-3-oxopropyl)thiophene-2-carboxamide]
CCN(CC)C1CCN(CCCN(C(=O)c2cccs2)c2nc(-c3cc4ccccc4o3)cs2)CC1 [N-(4-(benzofuran-2-yl)thiazol-2-yl)-N-(3-(4-(diethylamino)piperidin-1-yl)propyl)thiophene-2-carboxamide]

Source: patent US7795290B2 (Genentech, Inc., priority 2004, dated 2010)
